# Laboratory results as given in ChEMBL document CHEMBL5465560, “Selectivity Literature for EUbOPEN Chemogenomic Library” (2024).
# Key:
# [1] = molecular target: T1, MAP/microtubule affinity-regulating kinase 4 (Homo sapiens) (UniProt Q96L34); experiment: Selectivity interaction (KinomeScan (DiscoverX)) EUB0000666a MARK4; conditions: at 10 µM
# T1 sequence (whole entry): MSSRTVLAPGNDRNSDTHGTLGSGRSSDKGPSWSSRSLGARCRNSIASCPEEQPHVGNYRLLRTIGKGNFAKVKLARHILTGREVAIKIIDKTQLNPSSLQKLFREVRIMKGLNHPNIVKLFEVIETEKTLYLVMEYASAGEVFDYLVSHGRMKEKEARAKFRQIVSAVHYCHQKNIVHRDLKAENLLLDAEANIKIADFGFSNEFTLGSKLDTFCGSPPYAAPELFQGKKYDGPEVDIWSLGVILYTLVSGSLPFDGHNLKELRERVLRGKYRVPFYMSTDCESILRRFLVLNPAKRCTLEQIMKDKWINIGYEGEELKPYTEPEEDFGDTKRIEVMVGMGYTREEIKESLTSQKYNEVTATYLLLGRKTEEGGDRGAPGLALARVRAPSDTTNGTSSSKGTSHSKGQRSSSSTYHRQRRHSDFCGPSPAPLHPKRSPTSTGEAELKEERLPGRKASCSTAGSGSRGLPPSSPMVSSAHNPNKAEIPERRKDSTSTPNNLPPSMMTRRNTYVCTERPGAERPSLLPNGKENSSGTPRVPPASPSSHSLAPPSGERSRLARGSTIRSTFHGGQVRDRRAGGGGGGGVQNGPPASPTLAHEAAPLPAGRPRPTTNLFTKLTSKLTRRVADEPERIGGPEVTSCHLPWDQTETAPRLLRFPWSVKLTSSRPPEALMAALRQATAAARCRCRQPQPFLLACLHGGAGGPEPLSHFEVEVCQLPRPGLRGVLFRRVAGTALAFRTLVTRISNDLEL
# [2] = molecular target: T2, Serine/threonine-protein kinase 17B (Homo sapiens) (UniProt O94768); experiment: Selectivity interaction (Kinase panel (DSF assay)) EUB0001558a STK17B
# T2 sequence (whole entry): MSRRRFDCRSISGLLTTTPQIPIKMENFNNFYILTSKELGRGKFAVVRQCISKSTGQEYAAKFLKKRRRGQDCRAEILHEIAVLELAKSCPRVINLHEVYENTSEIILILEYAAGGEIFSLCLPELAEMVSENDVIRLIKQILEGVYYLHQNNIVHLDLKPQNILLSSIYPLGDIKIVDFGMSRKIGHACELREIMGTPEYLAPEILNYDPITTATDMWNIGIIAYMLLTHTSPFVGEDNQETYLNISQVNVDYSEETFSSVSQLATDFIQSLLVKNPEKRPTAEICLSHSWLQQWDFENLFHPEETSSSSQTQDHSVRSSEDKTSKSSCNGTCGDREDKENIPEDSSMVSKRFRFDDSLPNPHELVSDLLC
# [3] = molecular target: T3, Phosphatidylinositol 5-phosphate 4-kinase type-2 beta (Homo sapiens) (UniProt P78356); experiment: Selectivity interaction (Kinase panel (KiNativ target engagement assay in Jurkat cells)) EUB0001635a PIP4K2B; assay type: cell-based; conditions: Selectivity number of off-targets 0.0, Selectivity number of targets 233.0, Source Knowledge https://www.sciencedirect.com/science/article/pii/S2451945619300674?via%3Dihub, at 1 µM
# T3 sequence (whole entry): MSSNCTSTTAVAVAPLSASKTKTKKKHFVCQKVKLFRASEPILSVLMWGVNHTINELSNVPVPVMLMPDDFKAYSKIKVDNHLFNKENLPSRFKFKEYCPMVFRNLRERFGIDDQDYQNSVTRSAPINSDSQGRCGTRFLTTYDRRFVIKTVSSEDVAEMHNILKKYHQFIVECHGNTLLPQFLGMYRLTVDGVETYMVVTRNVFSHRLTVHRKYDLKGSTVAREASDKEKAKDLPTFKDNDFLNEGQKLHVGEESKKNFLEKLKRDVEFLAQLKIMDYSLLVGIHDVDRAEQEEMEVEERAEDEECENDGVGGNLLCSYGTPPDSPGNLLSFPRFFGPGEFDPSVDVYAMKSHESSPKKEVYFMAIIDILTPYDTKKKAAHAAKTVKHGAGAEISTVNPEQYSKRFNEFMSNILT
# [4] = system: Tyrosine-protein kinase ABL1 (Homo sapiens), P00519 [T315I]; conditions: at 10 µM
# [5] = molecular target: SWI/SNF-related matrix-associated actin-dependent regulator of chromatin subfamily A member 2 (Homo sapiens, UniProt P51531); experiment: Selectivity interaction (Bromodomain panel (DSF asssay)) EUB0000270b SMARCA2
# [6] = molecular target: Proto-oncogene tyrosine-protein kinase Src (Homo sapiens, UniProt P12931); experiment: Selectivity interaction (ActivX KiNativ screen (ex vivo kinase selectivity in human PBMCs)) EUB0001619a SRC; assay type: cell-based; conditions: PBMC, at 1 µM
# [7] = molecular target: Transient receptor potential cation channel subfamily M member 6 (Homo sapiens) (UniProt Q9BX84); experiment: Selectivity interaction (KinomeScan (DiscoverX)) EUB0000655a TRPM6; conditions: at 10 µM
# [8] = molecular target: T4, Mitogen-activated protein kinase kinase kinase kinase 2 (Homo sapiens) (UniProt Q12851); experiment: Selectivity interaction (KinomeScan (DiscoverX)) EUB0000695a MAP4K2; conditions: at 100 nM
# T4 sequence (whole entry): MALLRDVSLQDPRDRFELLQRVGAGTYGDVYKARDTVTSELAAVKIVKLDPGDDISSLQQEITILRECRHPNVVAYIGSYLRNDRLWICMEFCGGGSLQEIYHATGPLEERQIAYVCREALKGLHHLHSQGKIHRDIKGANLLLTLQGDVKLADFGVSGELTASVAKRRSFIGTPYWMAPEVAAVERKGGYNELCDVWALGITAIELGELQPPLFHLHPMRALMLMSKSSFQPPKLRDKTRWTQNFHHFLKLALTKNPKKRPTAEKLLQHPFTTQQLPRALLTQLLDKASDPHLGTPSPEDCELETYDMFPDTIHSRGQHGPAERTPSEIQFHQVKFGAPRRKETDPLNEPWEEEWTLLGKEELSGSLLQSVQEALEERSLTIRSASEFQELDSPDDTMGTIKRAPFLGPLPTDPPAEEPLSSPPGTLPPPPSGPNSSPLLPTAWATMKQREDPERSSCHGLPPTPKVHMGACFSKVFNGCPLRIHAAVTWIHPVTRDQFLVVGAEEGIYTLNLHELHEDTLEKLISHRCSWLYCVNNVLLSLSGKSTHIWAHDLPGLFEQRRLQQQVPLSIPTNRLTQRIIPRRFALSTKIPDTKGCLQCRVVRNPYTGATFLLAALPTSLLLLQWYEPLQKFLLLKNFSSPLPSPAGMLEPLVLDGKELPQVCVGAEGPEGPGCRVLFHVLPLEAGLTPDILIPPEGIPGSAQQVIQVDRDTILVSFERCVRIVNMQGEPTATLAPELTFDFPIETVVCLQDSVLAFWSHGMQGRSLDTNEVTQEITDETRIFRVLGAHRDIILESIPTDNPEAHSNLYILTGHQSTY
# [9] = molecular target: Tyrosine-protein kinase JAK1 (Homo sapiens, UniProt P23458); experiment: Selectivity interaction (Kinase panel (Carna Biosciences)) EUB0001542aTs JAK1; conditions: at 1 µM
# Chain of Tyrosine-protein kinase JAK1 (P23458 whole entry): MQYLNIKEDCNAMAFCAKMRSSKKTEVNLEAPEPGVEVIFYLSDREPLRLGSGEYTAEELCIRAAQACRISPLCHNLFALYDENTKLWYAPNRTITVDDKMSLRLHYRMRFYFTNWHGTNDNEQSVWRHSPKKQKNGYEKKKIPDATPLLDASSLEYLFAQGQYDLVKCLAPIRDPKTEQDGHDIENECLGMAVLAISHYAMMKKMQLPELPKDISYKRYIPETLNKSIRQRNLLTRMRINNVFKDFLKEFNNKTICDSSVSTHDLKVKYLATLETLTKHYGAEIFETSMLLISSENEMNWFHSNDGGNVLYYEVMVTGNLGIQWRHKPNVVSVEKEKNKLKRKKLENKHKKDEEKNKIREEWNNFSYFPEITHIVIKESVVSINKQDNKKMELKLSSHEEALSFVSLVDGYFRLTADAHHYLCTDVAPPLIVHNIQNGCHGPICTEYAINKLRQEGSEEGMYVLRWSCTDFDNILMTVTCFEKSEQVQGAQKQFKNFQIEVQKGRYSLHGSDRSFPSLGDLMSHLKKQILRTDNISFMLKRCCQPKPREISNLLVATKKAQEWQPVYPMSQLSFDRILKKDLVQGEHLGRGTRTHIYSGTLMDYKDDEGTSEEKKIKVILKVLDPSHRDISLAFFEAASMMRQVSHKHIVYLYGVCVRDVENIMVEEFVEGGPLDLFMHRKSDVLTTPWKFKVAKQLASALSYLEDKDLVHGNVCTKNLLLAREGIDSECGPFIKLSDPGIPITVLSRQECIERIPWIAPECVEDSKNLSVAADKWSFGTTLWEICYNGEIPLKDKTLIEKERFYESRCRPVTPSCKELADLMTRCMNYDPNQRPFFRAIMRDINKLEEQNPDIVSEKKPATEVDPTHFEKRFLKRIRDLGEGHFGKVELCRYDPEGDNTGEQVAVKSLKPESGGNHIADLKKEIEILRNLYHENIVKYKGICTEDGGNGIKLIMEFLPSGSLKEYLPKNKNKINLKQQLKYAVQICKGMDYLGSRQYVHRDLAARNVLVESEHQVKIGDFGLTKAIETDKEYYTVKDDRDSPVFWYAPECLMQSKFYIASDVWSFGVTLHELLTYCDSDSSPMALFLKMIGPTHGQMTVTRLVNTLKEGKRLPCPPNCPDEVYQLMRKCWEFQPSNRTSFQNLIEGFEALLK
# Chain of Proto-oncogene tyrosine-protein kinase Src (P12931 2-536 limits assumed): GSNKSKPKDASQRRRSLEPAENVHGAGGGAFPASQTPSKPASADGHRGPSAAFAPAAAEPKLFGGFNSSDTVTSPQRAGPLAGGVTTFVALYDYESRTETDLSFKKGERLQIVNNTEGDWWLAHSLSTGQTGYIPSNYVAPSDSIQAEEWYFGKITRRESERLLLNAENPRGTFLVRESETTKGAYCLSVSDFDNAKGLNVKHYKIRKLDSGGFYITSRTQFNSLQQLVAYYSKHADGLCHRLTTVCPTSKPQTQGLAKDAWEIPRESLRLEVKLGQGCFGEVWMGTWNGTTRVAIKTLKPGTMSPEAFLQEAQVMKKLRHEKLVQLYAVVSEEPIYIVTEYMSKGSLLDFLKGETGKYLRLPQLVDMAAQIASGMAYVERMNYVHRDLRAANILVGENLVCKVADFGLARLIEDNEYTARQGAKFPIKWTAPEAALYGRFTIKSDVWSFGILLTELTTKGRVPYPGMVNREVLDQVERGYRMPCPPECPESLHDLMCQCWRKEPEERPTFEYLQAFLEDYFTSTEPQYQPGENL
# Chain of Transient receptor potential cation channel subfamily M member 6 (Homo sapiens) (Q9BX84 whole entry): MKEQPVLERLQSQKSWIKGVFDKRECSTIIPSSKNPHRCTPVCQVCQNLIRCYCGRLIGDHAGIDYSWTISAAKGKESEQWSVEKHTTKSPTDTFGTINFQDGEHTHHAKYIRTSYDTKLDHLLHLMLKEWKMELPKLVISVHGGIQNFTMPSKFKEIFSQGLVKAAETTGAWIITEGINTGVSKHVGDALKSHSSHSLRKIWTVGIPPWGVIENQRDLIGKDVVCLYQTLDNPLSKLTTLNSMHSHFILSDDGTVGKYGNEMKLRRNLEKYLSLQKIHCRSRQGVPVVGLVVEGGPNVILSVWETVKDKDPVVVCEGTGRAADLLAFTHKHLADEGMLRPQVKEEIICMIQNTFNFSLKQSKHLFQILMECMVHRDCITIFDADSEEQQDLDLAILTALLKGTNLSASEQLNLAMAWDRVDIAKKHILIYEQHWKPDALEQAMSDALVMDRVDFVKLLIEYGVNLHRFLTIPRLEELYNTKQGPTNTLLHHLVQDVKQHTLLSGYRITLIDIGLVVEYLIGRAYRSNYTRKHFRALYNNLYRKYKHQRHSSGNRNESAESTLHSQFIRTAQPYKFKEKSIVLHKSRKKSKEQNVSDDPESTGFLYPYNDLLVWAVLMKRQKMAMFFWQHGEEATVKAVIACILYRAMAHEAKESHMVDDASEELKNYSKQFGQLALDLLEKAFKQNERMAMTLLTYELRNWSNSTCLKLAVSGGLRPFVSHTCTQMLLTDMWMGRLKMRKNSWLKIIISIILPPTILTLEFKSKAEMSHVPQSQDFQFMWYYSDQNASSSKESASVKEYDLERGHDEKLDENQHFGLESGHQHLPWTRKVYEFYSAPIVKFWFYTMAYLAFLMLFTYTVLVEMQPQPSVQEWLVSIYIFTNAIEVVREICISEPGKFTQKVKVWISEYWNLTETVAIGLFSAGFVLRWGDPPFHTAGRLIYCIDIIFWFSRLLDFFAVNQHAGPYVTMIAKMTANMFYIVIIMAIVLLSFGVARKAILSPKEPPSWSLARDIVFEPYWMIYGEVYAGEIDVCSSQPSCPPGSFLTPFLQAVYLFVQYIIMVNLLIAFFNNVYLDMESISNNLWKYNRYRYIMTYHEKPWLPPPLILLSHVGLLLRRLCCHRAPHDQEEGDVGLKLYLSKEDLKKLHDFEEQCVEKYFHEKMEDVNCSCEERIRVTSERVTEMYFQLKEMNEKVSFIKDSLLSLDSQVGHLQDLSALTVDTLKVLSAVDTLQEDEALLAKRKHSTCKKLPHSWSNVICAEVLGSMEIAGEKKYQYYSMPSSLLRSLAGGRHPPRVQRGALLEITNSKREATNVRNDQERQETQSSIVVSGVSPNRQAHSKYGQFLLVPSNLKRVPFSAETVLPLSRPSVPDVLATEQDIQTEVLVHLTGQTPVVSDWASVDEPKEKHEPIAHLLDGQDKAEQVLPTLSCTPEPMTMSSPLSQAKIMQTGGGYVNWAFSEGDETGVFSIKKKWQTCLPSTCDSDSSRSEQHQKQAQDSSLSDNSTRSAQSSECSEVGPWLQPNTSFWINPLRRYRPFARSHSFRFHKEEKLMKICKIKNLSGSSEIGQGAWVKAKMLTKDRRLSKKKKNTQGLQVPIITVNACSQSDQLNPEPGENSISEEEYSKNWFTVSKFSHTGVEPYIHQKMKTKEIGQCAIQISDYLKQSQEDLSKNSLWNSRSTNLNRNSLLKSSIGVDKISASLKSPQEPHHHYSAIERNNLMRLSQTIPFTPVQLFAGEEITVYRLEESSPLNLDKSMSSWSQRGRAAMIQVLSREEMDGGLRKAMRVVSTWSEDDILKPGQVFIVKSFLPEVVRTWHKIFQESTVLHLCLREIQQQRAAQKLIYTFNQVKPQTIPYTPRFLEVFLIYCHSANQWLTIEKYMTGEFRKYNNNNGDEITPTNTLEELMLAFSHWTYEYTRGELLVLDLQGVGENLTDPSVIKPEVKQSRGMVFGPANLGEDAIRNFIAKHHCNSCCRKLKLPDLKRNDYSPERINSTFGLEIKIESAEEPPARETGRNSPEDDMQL
structure (smiles),measurement,setting,value
O=C(NOC[C@H](O)CO)c1ccc(F)c(F)c1Nc1ccc(I)cc1F,% of control,[1],100%
CC(C)(O)[C@H](F)CN1Cc2cc(NC(=O)c3cnn4cccnc34)c(N3CCOCC3)cc2C1=O,dTM,[2],1.7 K
C=CC(=O)Nc1ccc(C(=O)Nc2[nH]nc3c2CN(C(=O)N[C@H](CN(C)C)c2ccccc2)C3(C)C)cc1,% of engagement,[3],-4.5%
CCN(CC)CCCCNc1ncc2cc(-c3cc(OC)cc(OC)c3)c(NC(=O)NC(C)(C)C)nc2n1,% of control,[4],100%
Cc1cc(CN)cc(C)c1-c1ncn(C)c1-c1cncn1C,dTM,[5],-0.5 K
N#Cc1cccc(-c2c[nH]c3ncnc(N4CCOCC4)c23)c1,% of inhibition,[6],-2%
CN(C)CCOc1ccc(-c2nc(-c3ccncc3)c(-c3ccc4c(c3)CC/C4=N\O)[nH]2)cc1,% of control,[7],100%
Cc1cc(F)c(C(=O)Nc2cccc(-c3nncn3C(C)C)n2)cc1-n1cnc(C2CC2)c1,% of control,[8],100%
Cn1cc(Nc2nccc(N3CC4CCC(C3)N4C(=O)[C@@H]3CC3(F)F)n2)cn1,% of inhibition,[9],96%
